Broadly, the Kd is the concentration at which binding is half-saturated.

This passage reports Kd results from paper PMC6044684 (ACS Omega, 2016).

The target of the assay is epidermal growth factor receptor (EGFR) (Homo sapiens, UniProt P00533). The assay can be described thus: SPR. The class given is binding.
Sequence of epidermal growth factor receptor (EGFR) (P00533 25-1210): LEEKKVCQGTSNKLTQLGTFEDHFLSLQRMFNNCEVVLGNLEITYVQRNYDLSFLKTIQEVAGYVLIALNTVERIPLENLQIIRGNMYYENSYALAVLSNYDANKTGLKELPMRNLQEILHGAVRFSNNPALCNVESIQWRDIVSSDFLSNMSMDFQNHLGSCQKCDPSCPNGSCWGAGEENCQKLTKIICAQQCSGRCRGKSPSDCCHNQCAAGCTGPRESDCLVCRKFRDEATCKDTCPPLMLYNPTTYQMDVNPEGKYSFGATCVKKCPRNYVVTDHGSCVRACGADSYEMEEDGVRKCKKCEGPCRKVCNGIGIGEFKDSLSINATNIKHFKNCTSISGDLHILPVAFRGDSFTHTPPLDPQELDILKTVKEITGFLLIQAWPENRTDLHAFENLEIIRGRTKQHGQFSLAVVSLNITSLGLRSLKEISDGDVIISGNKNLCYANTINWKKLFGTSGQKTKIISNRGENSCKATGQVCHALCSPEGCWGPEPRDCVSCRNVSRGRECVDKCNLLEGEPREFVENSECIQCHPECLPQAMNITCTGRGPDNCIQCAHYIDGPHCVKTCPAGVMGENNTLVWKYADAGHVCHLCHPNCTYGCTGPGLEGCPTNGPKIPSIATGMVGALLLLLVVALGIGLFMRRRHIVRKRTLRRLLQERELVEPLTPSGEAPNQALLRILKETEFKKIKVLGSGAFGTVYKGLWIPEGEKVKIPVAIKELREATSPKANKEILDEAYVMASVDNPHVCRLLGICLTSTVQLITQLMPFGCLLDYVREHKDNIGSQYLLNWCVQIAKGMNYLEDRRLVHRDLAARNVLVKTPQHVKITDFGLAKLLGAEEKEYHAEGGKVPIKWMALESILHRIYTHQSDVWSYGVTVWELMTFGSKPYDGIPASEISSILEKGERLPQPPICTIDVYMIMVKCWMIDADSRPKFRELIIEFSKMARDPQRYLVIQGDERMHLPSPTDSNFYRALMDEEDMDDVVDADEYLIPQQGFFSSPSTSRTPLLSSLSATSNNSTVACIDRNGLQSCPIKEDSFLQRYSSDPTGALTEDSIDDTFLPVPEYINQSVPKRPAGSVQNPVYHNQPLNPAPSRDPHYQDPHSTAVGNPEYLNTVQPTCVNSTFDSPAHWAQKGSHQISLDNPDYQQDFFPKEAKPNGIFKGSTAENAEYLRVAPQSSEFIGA

`Clc1ccc(C2=NN(c3nc(C45CC6CC(CC(C6)C4)C5)cs3)C(c3ccccc3)C2)c(Cl)c1` (stereo not shown) [3e, 4-(adamantan-1-yl)-2-(3-(2,4-dichlorophenyl)-5-phenyl-4,5-dihydro-1H-pyrazol-1-yl)thiazole] yielded a Kd of 11.8 ± 2.4 µM.
